In patent US20110015137A1, “RECA INHIBITORS AND THEIR USES AS MICROBIAL INHIBITORS OR POTENTIATORS OF ANTIBIOTIC ACTIVITY” (Trustees of Boston University, priority 2007, published 2011):
Where a name gives a salt, the structure may show the parent alone.

What follows are molecules tested against T1, E. coli RecA protein (Escherichia coli, UniProt P0A7G6) (assay: High throughput RecA-luciferase assay (ATP remaining after RecA ATPase reaction)). Details: compounds identified from the screen of more than 22,000 compounds.
T1 construct: purchased Epicentre, Madison, Wis
T1 sequence (P0A7G6 2-353): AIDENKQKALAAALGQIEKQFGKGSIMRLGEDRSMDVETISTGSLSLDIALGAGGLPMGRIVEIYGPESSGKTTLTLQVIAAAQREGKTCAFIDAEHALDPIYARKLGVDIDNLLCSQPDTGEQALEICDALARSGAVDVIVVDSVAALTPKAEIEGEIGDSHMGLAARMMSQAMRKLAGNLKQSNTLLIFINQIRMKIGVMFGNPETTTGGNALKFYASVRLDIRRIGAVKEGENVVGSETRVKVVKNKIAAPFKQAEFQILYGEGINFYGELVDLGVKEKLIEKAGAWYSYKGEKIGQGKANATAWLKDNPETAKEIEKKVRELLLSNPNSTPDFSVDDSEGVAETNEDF
Format: biochemical
Experimental: RecA is a DNA-dependent ATPase (i.e., it catalyzes the reaction adenosine triphosphate [ATP]→adenosine diphosphate [ADP]). An assay was developed for RecA ATPase activity based on detection of the amount of ATP remaining in a reaction mixture following incubation of RecA protein, DNA, and ATP. In an exemplary assay, E. coli RecA protein is incubated in reaction buffer with DNA, ATP, and any test compound or compounds for a measured amount of time. The quantity of ATP remaining after the RecA reaction can be quantitated using a subsequent luciferase assay. The luciferase emits more light as more ATP is available. In some embodiments, the amount of ATP remaining can be compared to controls containing either a known inhibitor (full inhibition control) or no test compound (full activity control). In some embodiments, a positive control (having no DNA added to the well) and negative control (having DNA and no compounds) are run with each screen. Positive responses are based upon the percent reduction of activity of luciferase, with a high percentage representing increased RecA inhibition. Percent inhibition can be calculated according to the following equation: […]
An in vitro RecA-luciferase assay was used to screen for RecA inhibitors. RecA is a DNA-dependent ATPase (i.e., it catalyzes the reaction adenosine triphosphate [ATP]→adenosine diphosphate [ADP]). An assay was developed for RecA ATPase activity based on detection of the amount of ATP remaining in a reaction mixture following incubation of RecA protein, DNA, and ATP. […] The quantity of ATP remaining after the RecA reaction was measured by a subsequent luciferase assay. The luciferase emit more light as more ATP was available.
For high throughput screening, the following reagents were added to each well of a 384 well plate:
The reagents were mixed and incubate at room temperature for about 5 minutes. Then, 5.0 μL of ATP mix, as indicated below, were added to each well.
The mix was incubated at room temperature for about 90-120 minutes. 12.5 μL of Kinase-Glo® plus (Promega) were added to each well and incubated at room temperature for about 10 minutes or more. The luminescence of the reaction was measured.
A positive control (having no DNA added to the well) and negative control (having DNA and no compounds) were run with each screen. Positive responses were based upon the percent reduction of activity of luciferase, with a high percentage representing increased RecA inhibition. Percent inhibition can be calculated according to the following equation: […]

| Molecule | activity in the RecA-luciferase screen (in words) |
| --- | --- |
| CC[n+]1c(-c2ccccc2)c2cc(N)ccc2c2ccc(N)cc21 [homidium bromide] | particularly active |
| Cl.Cl.O=C1c2c(O)ccc(O)c2C(=O)c2c(NCCNCCO)ccc(NCCNCCO)c21 [mitoxathrone hydrochloride] | particularly active |
| Oc1c(Cl)cc(Cl)c(Cl)c1Cc1c(O)c(Cl)cc(Cl)c1Cl [hexachlorophene] | particularly active |
| COc1cc2cc3c4cc(OC)c(OC)cc4cc[n+]3c(C)c2cc1OC.O.[Cl-] [coralyne chloride hydrate] | particularly active |
| CC[N+](C)(CC)CCC[n+]1c(-c2ccccc2)c2cc(N)ccc2c2ccc(N)cc21.[I-].[I-] [propidium iodide] | particularly active |
| Nc1c2ccccc2nc2ccccc12 [acrisorcin] | particularly active |
| CCN(CC)CCCC(C)Nc1c2ccc(Cl)cc2nc2ccc(OC)cc12 (stereo not drawn) [quinacrine hydrochloride] | particularly active |
| COc1cccc2c1C(=O)c1c(O)c3c(c(O)c1C2=O)C[C@@](O)(C(C)=O)C[C@@H]3O[C@H]1C[C@H](N)[C@H](O)[C@H](C)O1 [daunorubicin hydrochloride] | particularly active |
| Oc1c(Cl)cc(Cl)cc1Sc1cc(Cl)cc(Cl)c1O [bithionol] | particularly active |
| Cc1c2ccncc2c(C)c2c1[nH]c1ccccc12 [ellipticine] | particularly active |
| COc1cc2cc3c4cc(OC)c(OC)cc4cc[n+]3c(C)c2cc1OC.[Cl-] [coralyne chloride] | particularly active |
| Cc1cc(N)c2ccccc2[n+]1CCCCCCCCCC[n+]1c(C)cc(N)c2ccccc21 [dequalinium chloride] | particularly active |
| doxorubicin hydrochloride | particularly active |
| C[n+]1c2cc(N)ccc2cc2ccc(N)cc21.[Cl-] [acriflavinium hydrochloride] | particularly active |

What follows are molecules tested on S. aureus strain S3 (assay: Cell growth assay, first assay (gentamycin potentiation)). Details: gentamycin alone, sublethal concentration 0.3 μg/mL.
Format: cell-based
Experimental: Cell Growth Assay. This assay measures the ability of cells to grow in the presence of a sublethal dose (i.e., a dose below the MIC) of an antibiotic agent (or test agent, or combination thereof). In general, cells are grown, typically to saturation, and are then diluted and inoculated onto rich medium and onto medium containing a sublethal dose of antibiotic agent. Plates are then grown overnight, and OD600 is measured after overnight growth, as compared with blank plate. If desired, a test agent can be added to the plate, either alone or in combination with the known antibiotic agent, and the ratio of OD600 in the presence of the test agent to OD600 in the absence of the test agent, can be determined. Additional ratios that can be useful as controls include, for example, OD600 in the presence vs. absence of antibiotic agent; OD600 in the absence of any agent vs. in the presence of both antibiotic agent and test agent; etc.
Actinomycin D Potentiates Gentamycin: In the first assay, S. aureus strain S3 was used in a cell growth assay as described in FIG. 4. The strain was grown in the presence and absence of gentamycin and actinomycin D. Various concentrations of gentamycin and actinomycin D were used. Specifically, 40 μL gentamycin stock (5 mg/mL) was first diluted in 360 μL H2O. Then, 200 μL of the diluted gentamycin solution was further mixed with 200 μL H2O. […]

| Molecule | growth of S. aureus strain S3 |
| --- | --- |
| gentamycin | grew equally well |
